Test results from ChEMBL document CHEMBL1201862, “PubChem BioAssay data set” (2004).
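Tested at 5 concentrations; 48 h exposure; 96-well plates; endpoints linearly interpolated, else capped at highest concentration. GI50 = concentration required for 50% inhibition of growth.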 The source made the active and inactive calls. No stated cut-off is given here; in the data, active = GI50 up to about 1.1 µM and inactive = higher.

What was measured:
Experiment in all cases: NCI anticancer screen, dose series, 48 h
KM12 = system: KM12
NCI-H522 = system: NCI-H522
CCRF-CEM = system: CCRF-CEM
SN12C = system: SN12C
RXF 393 = system: RXF 393
HCC 2998 = system: HCC 2998
MOLT-4 = system: MOLT-4
SNB-19 = system: SNB-19
DMS-114 = system: DMS-114
UO-31 = system: UO-31
CAKI-1 = system: CAKI-1
OVCAR-4 = system: OVCAR-4
HOP-92 = system: HOP-92
HOP-62 = system: HOP-62
EKVX = system: EKVX
SW-620 = system: SW-620
HT-29 = system: HT-29
SK-MEL-5 = system: SK-MEL-5
OVCAR-8 = system: OVCAR-8
K562 = system: K562

Row | Compound | GI50 (KM12) | GI50 (NCI-H522) | GI50 (CCRF-CEM) | GI50 (SN12C) | GI50 (RXF 393) | GI50 (HCC 2998) | GI50 (MOLT-4) | GI50 (SNB-19) | GI50 (DMS-114) | GI50 (UO-31) | GI50 (CAKI-1) | GI50 (OVCAR-4) | GI50 (HOP-92) | GI50 (HOP-62) | GI50 (EKVX) | GI50 (SW-620) | GI50 (HT-29) | GI50 (SK-MEL-5) | GI50 (OVCAR-8) | GI50 (K562)
1 | CC(=O)NC1=C(C)C(=O)c2c(nc3n2CCC3O)C1=O (stereo not drawn) | > 100 µM (inactive) | 23.7 µM (inactive) | 4.24 µM (inactive) | 37.3 µM (inactive) | 21.5 µM (inactive) | 54 µM (inactive) | 3.44 µM (inactive) | > 100 µM (inactive) | 5.56 µM (inactive) | > 100 µM (inactive) | > 100 µM (inactive) | 13.6 µM (inactive) | 18.6 µM (inactive) | > 100 µM (inactive) | 24.7 µM (inactive) | 44.4 µM (inactive) | > 100 µM (inactive) | 51.9 µM (inactive) | 20.4 µM (inactive) | 19.1 µM (inactive)
2 | Clc1ccc(C[P+]2(c3ccccc3)CCCCC2)cc1.[O-][Cl+3]([O-])([O-])[O-] | 77.4 µM (inactive) | 28.8 µM (inactive) | 75.9 µM (inactive) | > 100 µM (inactive) | > 100 µM (inactive) | 43.6 µM (inactive) | 86.5 µM (inactive) | 66.8 µM (inactive) | 50.4 µM (inactive) | > 100 µM (inactive) |  |  |  | > 100 µM (inactive) | > 100 µM (inactive) | 80 µM (inactive) | 32 µM (inactive) | 20.3 µM (inactive) | > 100 µM (inactive) | 78.2 µM (inactive)
3 | C/C(=N\NC(=S)N(C)C)c1ncc[nH]1 | 5.21 µM (inactive) | 2.62 µM (inactive) | 2.82 µM (inactive) | 3.95 µM (inactive) | 6 µM (inactive) | 3.52 µM (inactive) | 3.06 µM (inactive) | 4.42 µM (inactive) | 3.13 µM (inactive) | 2.1 µM (inactive) |  |  | 2.47 µM (inactive) |  | 4.51 µM (inactive) | 4.59 µM (inactive) | 5.73 µM (inactive) | 4.46 µM (inactive) | 3.94 µM (inactive) | 2.59 µM (inactive)
4 | O=[N+]([O-])c1cc(C2SCc3nc4ccccc4n32)ccc1Cl (stereo not drawn) | 16.7 µM (inactive) | 20 µM (inactive) | 24.9 µM (inactive) | 12 µM (inactive) | 25.3 µM (inactive) | 18.4 µM (inactive) | 31.3 µM (inactive) | 45.9 µM (inactive) | 20.1 µM (inactive) | 18.5 µM (inactive) | 33.3 µM (inactive) |  | 25.1 µM (inactive) |  | 31.4 µM (inactive) | 41 µM (inactive) | 30.8 µM (inactive) | 15 µM (inactive) | 30.3 µM (inactive) | 17.1 µM (inactive)
5 | CC1=C(C(=O)Nc2cc(=O)n(C)c(=O)n2C)C(c2ccc([N+](=O)[O-])cc2)C(C(=O)Nc2cc(=O)n(C)c(=O)n2C)=C(C)N1 | > 100 µM (inactive) | 37.1 µM (inactive) | > 100 µM (inactive) | > 100 µM (inactive) | > 100 µM (inactive) | 94.8 µM (inactive) | 52.4 µM (inactive) | > 100 µM (inactive) | 73.5 µM (inactive) | 21.8 µM (inactive) |  | 31.5 µM (inactive) | 26.7 µM (inactive) | 18.1 µM (inactive) | > 100 µM (inactive) | > 100 µM (inactive) | > 100 µM (inactive) |  | 68.1 µM (inactive) | 75.5 µM (inactive)
6 | O=c1[nH]c(=O)n(C2CC(O)C(CO)O2)cc1C#Cc1cc(C(F)(F)F)cc(C(F)(F)F)c1 (stereo not drawn) | > 30.8 µM (inactive) | 25.1 µM (inactive) | > 100 µM (inactive) | > 27.9 µM (inactive) | 8.87 µM (inactive) | > 32 µM (inactive) | > 26.9 µM (inactive) | 20.1 µM (inactive) | > 31.2 µM (inactive) | > 30.6 µM (inactive) | > 100 µM (inactive) | > 29.4 µM (inactive) | 33.8 µM (inactive) | > 68.1 µM (inactive) | 40.3 µM (inactive) | > 30.2 µM (inactive) | > 31.8 µM (inactive) | > 27.4 µM (inactive) |  | > 100 µM (inactive)
7 | Cc1cc(S(=O)(=O)O)c(NC(=O)C(=O)C2C=CCS2(=O)=O)cc1Cl (stereo not drawn) | > 100 µM (inactive) | > 100 µM (inactive) | > 100 µM (inactive) | > 100 µM (inactive) | > 100 µM (inactive) | > 100 µM (inactive) | > 100 µM (inactive) | > 100 µM (inactive) | > 100 µM (inactive) | > 100 µM (inactive) | > 100 µM (inactive) | > 100 µM (inactive) | > 100 µM (inactive) | > 100 µM (inactive) | > 100 µM (inactive) | > 100 µM (inactive) | > 100 µM (inactive) | > 100 µM (inactive) | > 100 µM (inactive) | > 100 µM (inactive)
8 | COc1cc2c(c(OC(C)=O)c1OC(C)=O)-c1ccc(SC)c(=O)cc1C(NC(C)=O)CC2 (stereo not drawn) | 0.544 µM (active) | 0.379 µM (active) | 0.631 µM (active) | 4.52 µM (inactive) | 8.91 µM (inactive) | 2.51 µM (inactive) | 1.52 µM (inactive) | 2.65 µM (inactive) | 0.618 µM (active) | 89.1 µM (inactive) | 11.2 µM (inactive) | 9.82 µM (inactive) | 0.741 µM (active) | 7.59 µM (inactive) | 32.1 µM (inactive) | 0.951 µM (active) | 2.04 µM (inactive) | 0.631 µM (active) | 3.66 µM (inactive) | 0.483 µM (active)
9 | CCN(CC)C(=O)c1c(N2CCOCC2)cc(N(CC)CC)oc1=O | > 100 µM (inactive) | > 100 µM (inactive) | > 100 µM (inactive) | > 100 µM (inactive) | > 100 µM (inactive) | > 100 µM (inactive) | > 100 µM (inactive) | > 100 µM (inactive) | > 100 µM (inactive) | > 100 µM (inactive) |  | > 100 µM (inactive) | > 100 µM (inactive) | > 100 µM (inactive) | > 100 µM (inactive) | > 100 µM (inactive) | > 100 µM (inactive) |  | > 100 µM (inactive) | > 100 µM (inactive)
10 | COc1ccc2c(c1)[C@@H](NC(C)=O)CCc1cc(OC)c(OC)c(OC)c1-2 | 0.0131 µM (active) | 0.013 µM (active) | 0.0398 µM (active) | 0.02 µM (active) | 0.0151 µM (active) | 0.0174 µM (active) | 0.0206 µM (active) | 0.0222 µM (active) | 0.0118 µM (active) | 0.0296 µM (active) | 0.0206 µM (active) | 9.84 µM (inactive) | 0.0219 µM (active) | 0.0216 µM (active) | 8.34 µM (inactive) | 0.0172 µM (active) | 0.0146 µM (active) | 0.019 µM (active) | 0.0157 µM (active) | 0.0128 µM (active)
11 | COC(=O)NN=C1C(C)(C)C(=NNC(=O)OC)C1(C)C | > 100 µM (inactive) | > 61.4 µM (inactive) | > 44.9 µM (inactive) | > 68.2 µM (inactive) | > 100 µM (inactive) | > 100 µM (inactive) | > 100 µM (inactive) | > 100 µM (inactive) | > 41.6 µM (inactive) | > 100 µM (inactive) | > 85.1 µM (inactive) | > 100 µM (inactive) | > 100 µM (inactive) | > 100 µM (inactive) | > 100 µM (inactive) | > 100 µM (inactive) | > 36.9 µM (inactive) | > 100 µM (inactive) | > 41.2 µM (inactive) | > 100 µM (inactive)
12 | CC1(C)CCC[C@@]2(C)C1C[C@H](O)[C@@]1(C)O[C@@](C)([C@H](O)CO)CCC21 (stereo partly drawn) | 37.2 µM (inactive) | 25.9 µM (inactive) | 29.7 µM (inactive) | 37.2 µM (inactive) |  | 60.8 µM (inactive) | 21.2 µM (inactive) | 49.8 µM (inactive) | 25.3 µM (inactive) | 26.1 µM (inactive) | 35.8 µM (inactive) | 35.7 µM (inactive) | 23.7 µM (inactive) | 62.7 µM (inactive) | > 100 µM (inactive) | 47 µM (inactive) | 33 µM (inactive) | 20.9 µM (inactive) | 39.3 µM (inactive) | 26.9 µM (inactive)
13 | Cc1ccc(C2=[N+]([O-])c3ccccc3C2=O)cc1 | 17 µM (inactive) | 15.8 µM (inactive) | 11.9 µM (inactive) | 19.7 µM (inactive) | 17.7 µM (inactive) | > 51.3 µM (inactive) | 24.7 µM (inactive) | 31.9 µM (inactive) | 14.5 µM (inactive) | > 56.1 µM (inactive) | > 100 µM (inactive) |  | 9.23 µM (inactive) | > 100 µM (inactive) | 24.7 µM (inactive) | 36.4 µM (inactive) | 26.3 µM (inactive) | 13.6 µM (inactive) | 17.3 µM (inactive) | 16.1 µM (inactive)
14 | CCn1cc(C(=O)O)c(=O)c2cc(F)c(N3CCNCC3)nc21 [ENOXACIN] | 79.3 µM (inactive) | 24.4 µM (inactive) | > 100 µM (inactive) | 68.7 µM (inactive) |  | > 100 µM (inactive) | 67.1 µM (inactive) | > 100 µM (inactive) | > 100 µM (inactive) | > 100 µM (inactive) |  | > 100 µM (inactive) | 32.8 µM (inactive) | > 100 µM (inactive) | > 100 µM (inactive) | > 100 µM (inactive) | > 100 µM (inactive) | 87.5 µM (inactive) | > 100 µM (inactive) | 63.5 µM (inactive)
